# Counter-ions that a name gives are not always drawn. Marks after values point to notes of the source that are not given here.
# Test system: motor neurons of the facial nucleus
# Assay: Survival of the motor neurons after sectioning the facial nerve in rats aged 4 days
# Format: in vivo, rat
# Settings: via oral route, at 10 mg/kg; treated for 7 days; facial nerve lesion in 4 day old rats
# Description: Test of Survival of the Motor Neurons after Sectioning the Facial Nerve in Rats Aged 4 Days
# After lesion of the facial nerve in immature rats, the motor neurons of the facial nucleus underwent neuronal death by apoptosis. Neural survival was evaluated using histological methods and neuronal counting.
# 4 day old immature rats were anesthetized with pentobarbital (3 mg/kg by the i.p. route). The right facial nerve was exposed and sectioned, at its outlet from the stylomastoid foramen. After waking up, the young rats were returned to their mothers and treated for 7 days with one or two daily administrations, via oral or intraperitoneal route, at doses ranging from 1 to 10 mg/kg.
# 7 days after the lesion, the animals were decapitated and the brains frozen in isopentane at −40° C. The entire facial […] was cut with a cryostat into 10 μm sections. The motor neurons were colored with cresyl violet and counted using the Histo™ software (Biocom™).
row,SMILES,% increase of neuronal survival
1,"CN(C)C(=O)c1nc(-c2ccccc2)nc2c1c1ccc(Cl)cc1n2C [Compound 2, 7-chloro-N,N,9-trimethyl-2-phenyl-9H-pyrimido[4,5-b]indole-4-carboxamide]",+25* %
2,"CN(C)C(=O)c1nc(-c2ccncc2)nc2c1c1ccc(Cl)cc1n2C [Compound 15, 7-chloro-N,N,9-trimethyl-2-pyridin-4-yl-9H-pyrimido[4,5-b]indole-4-carboxamide]",+40* %
3,"CN(C)C(=O)Cc1nc(-c2ccccc2)nc2c1c1ccc(Cl)cc1n2C [Compound 19, 2-(7-chloro-9-methyl-2-phenyl-9H-pyrimido[4,5-b]indol-4-yl)-N,N-dimethylacetamide]",+21* %

# Test system: not given
# Assay: not given
# Settings: not given
row,melting point [°C],SMILES
1,285 to 289,Cc1cc(-c2nc(C(=O)N(C)C)c3c4ccc(Cl)cc4n(C)c3n2)cnc1C.Cl
2,289 to 291,CN(C)C(=O)c1nc(-c2cnc3c(c2)CCCC3)nc2c1c1ccc(Cl)cc1n2C.Cl
3,288 to 292,Cc1cc(-c2nc(C(=O)N(C)C)c3c4ccc(Cl)cc4n(C)c3n2)cc(C)n1.Cl
4,230 to 236,"CC(C)Cn1c2cc(Cl)ccc2c2c(C(=O)N(C)C)nc(-c3ccncc3)nc21 (as salt: HCl) [Compound 31, 7-chloro-9-isobutyl-N,N-dimethyl-2-pyridin-4-yl-9H-pyrimido[4,5-b]indole-4-carboxamide]"
5,240 to 242,"CN(C)Cc1ccc(-c2nc(C(=O)N(C)C)c3c4ccc(Cl)cc4n(C)c3n2)cn1 (as salt: HCl) [Compound 47, 7-chloro-2-{6-[(dimethylamino)methyl]pyridin-3-yl}-N,N,9-trimethyl-9H-pyrimido[4,5-b]indole-4-carboxamide]"
6,193 to 195,"CN(C)C(=O)c1nc(-c2ccccc2)nc2c1c1ccccc1n2C [Compound 1, N,N,9-trimethyl-2-phenyl-9H-pyrimido[4,5-b]indole-4-carboxamide]"
7,229 to 231,"CN(C)C(=O)c1nc(-c2ccccc2)nc2c1c1ccc(F)cc1n2C [Compound 3, 7-fluoro-N,N,9-trimethyl-2-phenyl-9H-pyrimido[4,5-b]indole-4-carboxamide]"
8,222 to 224,"CN(C)C(=O)c1nc(-c2ccccc2)nc2c1c1cc(Cl)ccc1n2C [Compound 4, 6-chloro-N,N,9-trimethyl-2-phenyl-9H-pyrimido[4,5-b]indole-4-carboxamide]"
9,232 to 233,"CN(C)C(=O)c1nc(-c2ccccc2)nc2[nH]c3cc(Cl)ccc3c12 [Compound 5, 7-chloro-N,N-dimethyl-2-phenyl-9H-pyrimido[4,5-b]indole-4-carboxamide]"
10,236 to 238,"CN1CCN(C(=O)c2nc(-c3ccccc3)nc3c2c2ccc(Cl)cc2n3C)CC1 [Compound 11, 7-chloro-9-methyl-4-[(4-methylpiperazin-1-yl)carbonyl]-2-phenyl-9H-pyrimido[4,5-b]indole]"
11,256 to 258,"Cn1c2cc(Cl)ccc2c2c(C(=O)N3CCCC3)nc(-c3ccncc3)nc21 [Compound 14, 7-chloro-9-methyl-2-pyridin-4-yl-4-(pyrrolidin-1-ylcarbonyl)-9H-pyrimido[4,5-b]indole]"
12,283 to 284,"CN(C)C(=O)c1nc(-c2cccnc2)nc2c1c1ccc(Cl)cc1n2C [Compound 16, 7-chloro-N,N,9-trimethyl-2-pyridin-3-yl-9H-pyrimido[4,5-b]indole-4-carboxamide]"
13,272 to 273,"CN(C)C(=O)c1nc(-c2cnccn2)nc2c1c1ccc(Cl)cc1n2C [Compound 18, 7-chloro-N,N,9-trimethyl-2-pyrazin-2-yl-9H-pyrimido[4,5-b]indole-4-carboxamide]"
14,231 to 232,"CN(C)C(=O)Cc1nc(-c2ccncc2)nc2c1c1ccc(Cl)cc1n2C [Compound 21, 2-(7-chloro-9-methyl-2-pyridin-4-yl-9H-pyrimido[4,5-b]indol-4-yl)-N,N-dimethylacetamide]"
15,248 to 251,"CN(C)C(=O)Cc1nc(-c2cccnc2)nc2c1c1ccc(Cl)cc1n2C [Compound 22, 2-(7-chloro-9-methyl-2-pyridin-3-yl-9H-pyrimido[4,5-b]indol-4-yl)-N,N-dimethylacetamide]"
16,218 to 219,"CN(C)C(=O)c1nc(-c2ccccc2)nc2[nH]c3ccccc3c12 [Compound 23, N,N-dimethyl-2-phenyl-9H-pyrimido[4,5-b]indole-4-carboxamide]"
17,139 to 140,"CCOC(=O)c1nc(-c2ccccc2)nc2c1c1ccc(Cl)cc1n2C [Compound 24, Ethyl 7-chloro-9-methyl-2-phenyl-9H-pyrimido[4,5-b]indole-4-carboxylate]"

row,melting point [°C],SMILES
1,208 to 209,"Cn1c2cc(Cl)ccc2c2c(C(=O)O)nc(-c3ccccc3)nc21 [Compound 26, 7-chloro-9-methyl-2-phenyl-9H-pyrimido[4,5-b]indole-4-carboxylic acid]"
2,267 to 268,"COc1ccc(-c2nc(C(=O)N(C)C)c3c4ccc(Cl)cc4n(C)c3n2)cn1 [Compound 28, 7-chloro-2-(6-methoxypyridin-3-yl)-N,N,9-trimethyl-9H-pyrimido[4,5-b]indole-4-carboxamide]"
3,278 to 279,"COc1cc(-c2nc(C(=O)N(C)C)c3c4ccc(Cl)cc4n(C)c3n2)ccn1 [Compound 30, 7-chloro-2-(2-methoxypyridin-4-yl)-N,N,9-trimethyl-9H-pyrimido[4,5-b]indole-4-carboxamide]"
4,197 to 198,"CN(C)C(=O)c1nc(C2CC2)nc2c1c1ccc(Cl)cc1n2C [Compound 32, 7-chloro-2-cyclopropyl-N,N,9-trimethyl-9H-pyrimido[4,5-b]indole-4-carboxamide]"
5,193 to 195,"Cc1nc(C(=O)N(C)C)c2c3ccc(Cl)cc3n(C)c2n1 [Compound 33, 7-chloro-N,N,2,9-tetramethyl-9H-pyrimido[4,5-b]indole-4-carboxamide]"
6,125 to 126,"CC(C)c1nc(C(=O)N(C)C)c2c3ccc(Cl)cc3n(C)c2n1 [Compound 34, 7-chloro-2-isopropyl-N,N,9-trimethyl-9H-pyrimido[4,5-b]indole-4-carboxamide]"
7,174.5 to 175.5,"CN(C)C(=O)c1nc(C2CCOCC2)nc2c1c1ccc(Cl)cc1n2C [Compound 35, 7-chloro-N,N,9-trimethyl-2-(tetrahydro-2H-pyran-4-yl)-9H-pyrimido[4,5-b]indole-4-carboxamide]"
8,275 to 276,"CN(C)C(=O)c1nc(-c2ccc(Cl)nc2)nc2c1c1ccc(Cl)cc1n2C [Compound 37, 7-chloro-2-(6-chloropyridin-3-yl)-N,N,9-trimethyl-9H-pyrimido[4,5-b]indole-4-carboxamide]"
9,237 to 239,"CCOc1ccc(-c2nc(C(=O)N(C)C)c3c4ccc(Cl)cc4n(C)c3n2)cn1 [Compound 39, 7-chloro-2-(6-ethoxypyridin-3-yl)-N,N,9-trimethyl-9H-pyrimido[4,5-b]indole-4-carboxamide]"
10,232 to 235,"CCc1ccc(-c2nc(C(=O)N(C)C)c3c4ccc(Cl)cc4n(C)c3n2)cn1 [Compound 40, 7-chloro-2-(6-ethylpyridin-3-yl)-N,N,9-trimethyl-9H-pyrimido[4,5-b]indole-4-carboxamide]"
11,218 to 219,"CCc1cncc(-c2nc(C(=O)N(C)C)c3c4ccc(Cl)cc4n(C)c3n2)c1 [Compound 41, 7-chloro-2-(5-ethylpyridin-3-yl)-N,N,9-trimethyl-9H-pyrimido[4,5-b]indole-4-carboxamide]"
12,313 to 314,"Cc1cncc(-c2nc(C(=O)N(C)C)c3c4ccc(Cl)cc4n(C)c3n2)c1 [Compound 42, 7-chloro-N,N,9-trimethyl-2-(5-methylpyridin-3-yl)-9H-pyrimido[4,5-b]indole-4-carboxamide]"
13,322 to 325,"CN(C)C(=O)c1nc(-c2cncnc2)nc2c1c1ccc(Cl)cc1n2C [Compound 43, 7-chloro-N,N,9-trimethyl-2-pyrimidin-5-yl-9H-pyrimido[4,5-b]indole-4-carboxamide]"
14,258 to 260,"COc1cncc(-c2nc(C(=O)N(C)C)c3c4ccc(Cl)cc4n(C)c3n2)c1 [Compound 44, 7-chloro-2-(5-methoxypyridin-3-yl)-N,N,9-trimethyl-9H-pyrimido[4,5-b]indole-4-carboxamide]"
15,239 to 241,"COCc1ccc(-c2nc(C(=O)N(C)C)c3c4ccc(Cl)cc4n(C)c3n2)cn1 [Compound 45, 7-chloro-2-[6-(methoxymethyl)pyridin-3-yl]-N,N,9-trimethyl-9H-pyrimido[4,5-b]indole-4-carboxamide]"
16,256 to 258,"Cc1nc(-c2nc(C(=O)N(C)C)c3c4ccc(Cl)cc4n(C)c3n2)cs1 [Compound 46, 7-chloro-N,N,9-trimethyl-2-(2-methyl-1,3-thiazol-4-yl)-9H-pyrimido[4,5-b]indole-4-carboxamide]"

# Target: T1, peripheral benzodiazepine receptors (p or PBR sites) (Rattus norvegicus, UniProt P16257)
# T1 construct: After decapitation, the kidney was removed and the tissue was homogenized; from tissue; host or cells: kidney membrane homogenate of male Sprague Dawley rats
# Assay: Binding of [3H]Ro5-4864 to peripheral benzodiazepine receptors in rat kidney membranes
# Settings: [3H]Ro5-4864 0.5 nM, 3 h at 0° C., read-out: IC50, concentration which inhibits 50% of the specific binding of [3H]Ro5-4864
row,SMILES,IC50 [nM]
1,"CN(C)C(=O)c1nc(-c2ccccc2)nc2c1c1ccc(Cl)cc1n2C [Compound 2, 7-chloro-N,N,9-trimethyl-2-phenyl-9H-pyrimido[4,5-b]indole-4-carboxamide]",2.2
2,"CN(C)C(=O)c1nc(-c2ccncc2)nc2c1c1ccc(Cl)cc1n2C [Compound 15, 7-chloro-N,N,9-trimethyl-2-pyridin-4-yl-9H-pyrimido[4,5-b]indole-4-carboxamide]",3.1
3,"CN(C)C(=O)Cc1nc(-c2ccccc2)nc2c1c1ccc(Cl)cc1n2C [Compound 19, 2-(7-chloro-9-methyl-2-phenyl-9H-pyrimido[4,5-b]indol-4-yl)-N,N-dimethylacetamide]",1.3
